Values after ≈ are worked out from the molar mass of the structure shown. Where two headings read alike, the source gives them in different places.
How the values were obtained:
STK4 = STK4 (Homo sapiens (Human), UniProt Q13043); test: PhosphoSens CSox-based Sensor Assay, STK4; assay type: biochemical; settings: Km ATP, mean n = 2
Method: (§1) Materials were obtained and prepared according to the assay manufacturer's protocol (Assay Quant Technologies: Marlborough, MA, USA). The 50 μL reaction was initiated by addition of a master mix containing the compounds or vehicle, kinase, and CSox-peptide substrate to a well containing the remaining components. […] Final concentrations were: […] HEPES pH 7.5, 50 μM ATP, 1.0 mM DTT, 0.01% Brij-35, 0.5 mM EGTA, 10 mM MgCl2, 10 μM peptide substrate (AQT0135), and 5.0 nM STK3 (SignalChem #S24-10G) or STK4 (SignalChem #S25-10G) kinases. […] Background-corrected RFU were plotted against time using Prism 8 software. Velocity determinations were calculated for each reaction and plotted versus compound concentration to generate inhibitor curves.
(§2) The PhosphoSens® CSox-based Sensor real-time kinetic assay uses a peptide substrate containing an unnatural amino acid and physiological Mg^2+ levels to quantify substrate phosphorylation using fluorescence.

kinase domain of STK4 = kinase domain of STK4 (Homo sapiens (Human), UniProt Q13043); test: Isothermal titration calorimetry (ITC), STK4; assay type: binding; settings: 25° C
Sequence of kinase domain of STK4 (Q13043 30-281): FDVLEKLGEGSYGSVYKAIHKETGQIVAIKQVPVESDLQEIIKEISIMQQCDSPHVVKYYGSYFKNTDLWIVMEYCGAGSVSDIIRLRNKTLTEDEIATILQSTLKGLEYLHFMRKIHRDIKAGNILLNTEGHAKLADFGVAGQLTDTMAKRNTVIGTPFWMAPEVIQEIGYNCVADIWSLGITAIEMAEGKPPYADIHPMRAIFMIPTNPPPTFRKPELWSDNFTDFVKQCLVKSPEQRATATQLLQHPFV
Method: (§3) All ITC experiments were performed using NanoITC (TA Instruments: New Castle, DE, USA) at 25° C. in a buffer containing 20 mM Tris pH 7.5, 150 mM NaCl, and 0.5 mM TCEP. […] For this protocol the chamber was pre-equilibrated with the test compound, and the kinase domain of STK3 or STK4 was titrated in while continuously measuring the rate of exothermic heat evolution. The heat of binding was integrated, corrected, and fitted to an independent single-binding site model based on the manufacturer's protocol, from which thermodynamic parameters (ΔH and TΔS), equilibrium association and dissociation constants (Ka and KD), and stoichiometry (n) were calculated.
(§4) Isothermal titration calorimetry (ITC) was used to determine the thermodynamic properties of the compounds.

LRRK2 = LRRK2 (Homo sapiens (Human), UniProt Q5S007); test: NanoBRET intracellular kinase assay, LRRK2; assay type: cell-based; settings: transfected HEK293 cells, 2 h
Sequence of LRRK2 (Q5S007 whole entry, species assumed, the tested form may be a part): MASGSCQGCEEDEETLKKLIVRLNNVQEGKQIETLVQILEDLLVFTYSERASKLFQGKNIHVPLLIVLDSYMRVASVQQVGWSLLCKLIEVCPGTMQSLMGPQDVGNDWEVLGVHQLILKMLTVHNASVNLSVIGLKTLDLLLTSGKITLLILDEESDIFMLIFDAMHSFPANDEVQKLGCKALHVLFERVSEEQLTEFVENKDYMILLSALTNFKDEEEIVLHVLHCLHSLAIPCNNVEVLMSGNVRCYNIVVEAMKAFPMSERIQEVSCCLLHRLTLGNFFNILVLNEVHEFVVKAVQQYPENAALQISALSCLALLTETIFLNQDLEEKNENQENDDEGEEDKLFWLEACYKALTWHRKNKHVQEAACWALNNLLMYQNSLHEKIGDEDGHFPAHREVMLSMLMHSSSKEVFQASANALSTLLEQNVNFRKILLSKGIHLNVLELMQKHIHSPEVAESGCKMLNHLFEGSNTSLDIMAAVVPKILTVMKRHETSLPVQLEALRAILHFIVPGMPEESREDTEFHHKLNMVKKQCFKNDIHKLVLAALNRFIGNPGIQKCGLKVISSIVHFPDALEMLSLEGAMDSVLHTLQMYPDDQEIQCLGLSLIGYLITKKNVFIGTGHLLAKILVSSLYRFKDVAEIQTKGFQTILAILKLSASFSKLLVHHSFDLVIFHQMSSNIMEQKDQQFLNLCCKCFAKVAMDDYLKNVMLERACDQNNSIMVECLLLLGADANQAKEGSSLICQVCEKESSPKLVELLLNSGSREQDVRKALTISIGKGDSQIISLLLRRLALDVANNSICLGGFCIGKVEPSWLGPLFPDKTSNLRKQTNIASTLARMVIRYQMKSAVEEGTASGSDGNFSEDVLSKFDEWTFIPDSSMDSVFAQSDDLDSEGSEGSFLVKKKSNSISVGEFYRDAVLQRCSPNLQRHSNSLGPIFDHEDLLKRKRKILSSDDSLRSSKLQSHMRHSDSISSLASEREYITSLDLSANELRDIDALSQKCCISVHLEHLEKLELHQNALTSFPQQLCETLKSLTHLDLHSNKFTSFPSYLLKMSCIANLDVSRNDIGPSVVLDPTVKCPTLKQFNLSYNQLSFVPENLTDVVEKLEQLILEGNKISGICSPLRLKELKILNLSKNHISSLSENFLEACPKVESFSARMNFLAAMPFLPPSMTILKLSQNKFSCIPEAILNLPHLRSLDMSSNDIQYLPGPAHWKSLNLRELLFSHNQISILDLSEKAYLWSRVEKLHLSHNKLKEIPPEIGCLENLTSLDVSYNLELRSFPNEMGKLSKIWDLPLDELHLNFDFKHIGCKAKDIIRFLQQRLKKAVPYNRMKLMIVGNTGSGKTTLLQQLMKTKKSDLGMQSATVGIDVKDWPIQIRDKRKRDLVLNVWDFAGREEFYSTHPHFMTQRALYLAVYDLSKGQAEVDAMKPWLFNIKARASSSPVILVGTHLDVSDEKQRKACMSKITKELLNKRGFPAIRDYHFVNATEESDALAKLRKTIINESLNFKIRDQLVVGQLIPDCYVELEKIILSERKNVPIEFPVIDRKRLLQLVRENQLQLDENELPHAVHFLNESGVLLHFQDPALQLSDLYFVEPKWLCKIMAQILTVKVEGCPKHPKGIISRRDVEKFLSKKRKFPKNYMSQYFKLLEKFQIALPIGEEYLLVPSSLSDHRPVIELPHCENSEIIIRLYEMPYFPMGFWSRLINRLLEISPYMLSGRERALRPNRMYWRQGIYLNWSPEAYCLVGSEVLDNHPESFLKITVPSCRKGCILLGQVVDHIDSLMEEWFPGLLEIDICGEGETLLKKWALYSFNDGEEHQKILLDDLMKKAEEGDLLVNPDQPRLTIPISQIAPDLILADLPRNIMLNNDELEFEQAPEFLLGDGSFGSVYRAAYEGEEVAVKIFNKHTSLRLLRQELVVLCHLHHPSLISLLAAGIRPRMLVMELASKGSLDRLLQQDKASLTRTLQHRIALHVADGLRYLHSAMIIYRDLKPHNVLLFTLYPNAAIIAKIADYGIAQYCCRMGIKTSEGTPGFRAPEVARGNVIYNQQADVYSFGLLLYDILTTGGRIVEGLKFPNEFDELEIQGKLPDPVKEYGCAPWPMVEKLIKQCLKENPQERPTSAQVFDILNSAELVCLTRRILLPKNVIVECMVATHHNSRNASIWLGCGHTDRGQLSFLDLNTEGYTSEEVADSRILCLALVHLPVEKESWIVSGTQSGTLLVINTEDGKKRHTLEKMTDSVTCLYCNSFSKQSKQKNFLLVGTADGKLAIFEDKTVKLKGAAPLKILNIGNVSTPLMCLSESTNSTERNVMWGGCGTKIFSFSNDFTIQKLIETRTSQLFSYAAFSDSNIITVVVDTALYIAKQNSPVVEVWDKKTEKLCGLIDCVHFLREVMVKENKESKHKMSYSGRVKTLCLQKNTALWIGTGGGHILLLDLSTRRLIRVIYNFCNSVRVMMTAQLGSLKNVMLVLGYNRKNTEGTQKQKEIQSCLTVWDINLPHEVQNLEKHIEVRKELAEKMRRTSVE
Method: Full-length STK3, STK4, and LRRK2 kinase was cloned in-frame with a C-terminal NanoLuc-fusion (Promega: Madison, WI, USA) and the plasmid was transfected into HEK293T cells using FuGENE HD (Promega, E2312). After 20 h, transfected cells were mixed with inhibitors and 50 nM NanoBRET Kinase Tracer K10 (Promega) and reseeded at a density of 2× 10^5 cells/mL in Opti-Minimal Essential Medium (MEM) without phenol red (Life Technologies; Carlsbad, CA, USA) in 384-well plates (Greiner 781-207; Kremsmunster, Austria). After 2 h at 37° C. in a 5% CO2 atmosphere, NanoBRET NanoGlo Substrate+Extra-cellular NanoLuc Inhibitor (Promega, N2540) was added, and filtered luminescence was measured on a PHERAstar plate reader (BMG Labtech; Ortenberg, Germany) equipped with a lumi-nescence filter pair (450 nm BP filter (donor) and 610 nm LP filter (acceptor)).
To confirm cellular potency for compounds described herein, the […] were used to detect engagement of STK3 and STK4 in live cells using the NanoBRET™ intracellular kinase assay, marking the first report of a NanoBRET assay for STK3 and STK4. This assay measured the apparent affinity of test compounds by competitive displacement of the NanoBRET™ tracer, reversibly bound to a NanoLuc® luciferase-kinase fusion in cells. To evaluate potential off-target activity of the inhibitors, the inhibition of LRRK2 in live cells by the STK3/4 inhibitors compounds described herein were measured. Cultured HEK293 cells were either transfected with NanoLuc®-STK3 fusion vector, NanoLuc®-STK4 fusion, or with NanoLuc®-LRRK2 vector for 24 h. A 50 nM tracer and these compounds were added to cells and incubated for 2 h. These compounds tested in the assays decreased the NanoBRET™ signal for both STK3 and STK4 at varying potencies and confirming cellular target engagement of STK3/4.

Kinetic solubility = assay type: physicochemical
Source text: Data is represented as an average of a single experiment preformed in duplicate. Atenolol was used as an internal standard.

STK3 = STK3 (Homo sapiens (Human), UniProt Q13188); test: PhosphoSens CSox-based Sensor Assay, STK3; assay type: biochemical; settings: Km ATP, mean n = 2
Sequence of STK3 (Q13188 whole entry): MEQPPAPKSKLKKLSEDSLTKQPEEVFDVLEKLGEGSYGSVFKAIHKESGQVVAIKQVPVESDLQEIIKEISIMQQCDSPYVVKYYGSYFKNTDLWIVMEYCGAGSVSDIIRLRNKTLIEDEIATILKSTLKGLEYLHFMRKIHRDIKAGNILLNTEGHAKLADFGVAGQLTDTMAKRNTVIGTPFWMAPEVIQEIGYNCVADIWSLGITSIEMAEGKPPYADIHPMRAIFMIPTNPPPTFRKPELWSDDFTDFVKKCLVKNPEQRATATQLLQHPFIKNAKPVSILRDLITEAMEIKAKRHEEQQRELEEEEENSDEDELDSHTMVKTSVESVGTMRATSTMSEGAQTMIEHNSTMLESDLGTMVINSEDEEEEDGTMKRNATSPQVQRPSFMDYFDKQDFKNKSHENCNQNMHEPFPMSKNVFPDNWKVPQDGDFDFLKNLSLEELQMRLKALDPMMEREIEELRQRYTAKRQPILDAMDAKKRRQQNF
Method: as §1, §2

kinase domain of STK3 = kinase domain of STK3 (Homo sapiens (Human), UniProt Q13188); test: Isothermal titration calorimetry (ITC), STK3; assay type: binding; settings: 25° C
Sequence of kinase domain of STK3 (Q13188 27-278): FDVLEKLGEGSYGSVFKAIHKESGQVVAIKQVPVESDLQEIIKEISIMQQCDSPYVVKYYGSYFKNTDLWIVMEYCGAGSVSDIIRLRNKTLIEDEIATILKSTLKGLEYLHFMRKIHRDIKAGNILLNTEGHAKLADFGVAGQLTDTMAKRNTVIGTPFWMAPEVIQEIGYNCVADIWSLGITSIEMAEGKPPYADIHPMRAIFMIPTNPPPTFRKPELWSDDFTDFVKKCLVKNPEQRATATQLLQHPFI
Method: as §3, §4

[1] = FaSSGF, fassgf or other biorelevant, kinetic from dmso stock, FaSSGF, read-out: Solubility, FASSGF
[2] = FaSSIF, kinetic from dmso stock, FaSSIF, read-out: Solubility, FaSSIF
[3] = PBS pH 7.4, pH 7.4, aqueous buffer, kinetic from dmso stock, PBS pH 7.4, read-out: Solubility, Buffer (pH = 7.4)

Sequence of STK4 (Q13043 whole entry): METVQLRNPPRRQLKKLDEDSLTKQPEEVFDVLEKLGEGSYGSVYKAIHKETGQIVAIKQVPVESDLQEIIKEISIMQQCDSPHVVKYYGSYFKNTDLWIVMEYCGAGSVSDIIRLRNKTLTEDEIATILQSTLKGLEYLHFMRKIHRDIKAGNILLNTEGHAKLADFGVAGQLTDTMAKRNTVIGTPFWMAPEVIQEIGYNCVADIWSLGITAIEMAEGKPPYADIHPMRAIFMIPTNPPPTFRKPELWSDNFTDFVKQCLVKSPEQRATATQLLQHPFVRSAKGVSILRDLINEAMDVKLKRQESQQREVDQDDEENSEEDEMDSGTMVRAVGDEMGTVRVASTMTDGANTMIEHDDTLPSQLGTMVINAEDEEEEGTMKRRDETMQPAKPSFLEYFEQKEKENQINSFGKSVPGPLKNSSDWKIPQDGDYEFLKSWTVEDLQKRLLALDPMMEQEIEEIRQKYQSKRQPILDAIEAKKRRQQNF

| SMILES | Ki (STK4) | ITC-KD, STK4 (kinase domain of STK4) | IC50 (LRRK2) | solubility (Kinetic solubility; [1]) | solubility (Kinetic solubility; [2]) | solubility (Kinetic solubility; [3]) | Ki (STK3) | LRRK2: IC50 (LRRK2) | solubility (Kinetic solubility; PBS pH 7.4, read-out: Solubility, Buffer (pH = 7.4)) | ITC-KD, STK3 (kinase domain of STK3) |
| --- | --- | --- | --- | --- | --- | --- | --- | --- | --- | --- |
| Clc1cccc(-c2c[nH]c3ncnc(N4CCOCC4)c23)c1 [Compound 6, 4-(5-(3-Chlorophenyl)-7H-pyrrolo[2,3-d]pyrimidin-4-yl)morpholine] | 52 nM | low nanomolar affinities | ≤ 1000 nM | 353 µM (≈ 111 µg/mL) | 35.7 µM (≈ 11.2 µg/mL) | 9.2 µM (≈ 2.9 µg/mL) |  |  |  |  |
| NC(=O)c1cccc(-c2c[nH]c3ncnc(N4CCOCC4)c23)c1 [Compound 11, 3-(4-Morpholino-7H-pyrrolo[2,3-d]pyrimidin-5-yl)benzamide] |  |  | ≥ 2000 nM | 430 µM (≈ 139 µg/mL) | 136 µM (≈ 43.8 µg/mL) | 145 µM (≈ 46.9 µg/mL) | 145 nM |  |  |  |
| OC1CCN(c2ncnc3[nH]cc(-c4cccc(Cl)c4)c23)CC1 [Compound 16, 1-(5-(3-Chlorophenyl)-7H-pyrrolo[2,3-d]pyrimidin-4-yl)piperidin-4-ol] |  |  |  | 352 µM (≈ 116 µg/mL) | 294 µM (≈ 96.5 µg/mL) | 189 µM (≈ 62.1 µg/mL) |  | B (B: IC50 is >2000 nM and <1000 nM) | 188.5 µM (≈ 62 µg/mL) |  |
| Clc1cccc(-c2c[nH]c3nccc(N4CCOCC4)c23)c1 [Compound 23, 4-(3-(3-chlorophenyl)-1H-pyrrolo[2,3-b]pyridin-4-yl)morpholine] | 33 nM | low nanomolar affinities | ≤ 1000 nM | 372 µM (≈ 117 µg/mL) | 7 µM (≈ 2.2 µg/mL) | < 0.6 µM | 209 nM |  |  | low nanomolar affinities |
| CC(=O)NC1CCN(c2ncnc3[nH]cc(-c4cccc(Cl)c4)c23)CC1 [Compound 105, N-(1-(5-(3-chlorophenyl)-7H-pyrrolo[2,3-d]pyrimidin-4-yl)piperidin-4-yl)acetamide] |  |  |  |  |  |  |  | B (B: IC50 is >2000 nM and <1000 nM) |  |  |
